# According to ChEMBL document CHEMBL1201862, “PubChem BioAssay data set” (2004):
#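 Dose response: 5 concentrations. Exposure: 48 h. Format: 96-well plates. Endpoint: linear interpolation; highest concentration if not reached. The concentration for 50% growth inhibition is given as GI50.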 Active and inactive are the calls of the source. No stated cut-off is given here; in the data, active = GI50 up to about 1.1 µM and inactive = higher.
# How the values were obtained:
# Assay in all cases: NCI anticancer screen, dose series, 48 h
# [1] = tested on: CAKI-1
# [2] = tested on: COLO 205
# [3] = tested on: EKVX
# [4] = tested on: HCT-15
# [5] = tested on: HOP-62
# [6] = tested on: IGROV-1
# [7] = tested on: K562
# [8] = tested on: MOLT-4
# [9] = tested on: NCI-H23
# [10] = tested on: OVCAR-8
# [11] = tested on: SK-MEL-28
# [12] = tested on: SK-MEL-2
# [13] = tested on: SW-620
# [14] = tested on: U-251
# [15] = tested on: HCC 2998
SMILES,GI50 [1],GI50 [2],GI50 [3],GI50 [4] [µM],GI50 [5],GI50 [6],GI50 [7],GI50 [8],GI50 [9],GI50 [10],GI50 [11],GI50 [12],GI50 [13],GI50 [14],GI50 [15]
CCOc1ccc(OP2(=O)NC(=O)C=C(C)N2)cc1 (centres undefined),> 100 µM (inactive),> 100 µM (inactive),> 100 µM (inactive),> 100,> 100 µM (inactive),> 100 µM (inactive),> 100 µM (inactive),> 100 µM (inactive),> 100 µM (inactive),> 100 µM (inactive),> 100 µM (inactive),> 100 µM (inactive),> 100 µM (inactive),> 100 µM (inactive),–
CCc1cccc(C(C)CC)c1NC(=O)CC1C(=O)Nc2ccccc2S1(=O)=O (centres undefined),15.4 µM (inactive),20.9 µM (inactive),7.05 µM (inactive),13.3,36.8 µM (inactive),20.6 µM (inactive),4.95 µM (inactive),11.8 µM (inactive),7.45 µM (inactive),4.22 µM (inactive),53.2 µM (inactive),64.6 µM (inactive),8.61 µM (inactive),40.3 µM (inactive),6.17 µM (inactive)
O=C(c1ccncc1)n1nc(-c2ccccc2)c(/N=N/c2ccc([N+](=O)[O-])cc2)c1-c1ccccc1,78.5 µM (inactive),79.8 µM (inactive),3.27 µM (inactive),–,39.4 µM (inactive),> 100 µM (inactive),54.7 µM (inactive),48.6 µM (inactive),22.6 µM (inactive),91.2 µM (inactive),> 100 µM (inactive),77.8 µM (inactive),> 100 µM (inactive),–,71.3 µM (inactive)
O=C1CCC(Cl)=CC2CCCN12 (centres undefined),> 100 µM (inactive),> 100 µM (inactive),> 100 µM (inactive),> 100,> 100 µM (inactive),> 100 µM (inactive),> 100 µM (inactive),> 100 µM (inactive),> 100 µM (inactive),> 100 µM (inactive),> 100 µM (inactive),> 100 µM (inactive),> 100 µM (inactive),> 100 µM (inactive),> 100 µM (inactive)
COc1ccc(-c2c(C3=NCCCN3)nnn2-c2ccccc2)cc1,> 100 µM (inactive),> 100 µM (inactive),> 100 µM (inactive),> 100,> 100 µM (inactive),> 100 µM (inactive),> 100 µM (inactive),> 100 µM (inactive),> 100 µM (inactive),> 100 µM (inactive),> 100 µM (inactive),> 100 µM (inactive),> 100 µM (inactive),> 100 µM (inactive),> 100 µM (inactive)
COc1ccc2c([nH]c3cc(O)c(C)cc32)c1C=O,–,> 25 µM (inactive),–,14.8,> 25 µM (inactive),> 25 µM (inactive),14.6 µM (inactive),11.2 µM (inactive),–,> 25 µM (inactive),> 25 µM (inactive),> 25 µM (inactive),> 25 µM (inactive),> 25 µM (inactive),> 25 µM (inactive)
CC1C=CC(C(N)C(=O)O)O1 (centres undefined),> 100 µM (inactive),> 100 µM (inactive),> 100 µM (inactive),> 100,> 100 µM (inactive),> 100 µM (inactive),51.3 µM (inactive),> 100 µM (inactive),> 100 µM (inactive),> 100 µM (inactive),> 100 µM (inactive),> 100 µM (inactive),> 100 µM (inactive),> 100 µM (inactive),> 100 µM (inactive)
